In patent US7030267B2, “Cycloproply β-amino acid derivatives” (Warner-Lambert Company, LLC, priority 2003, dated 2006):

melting point | SMILES
231 to 235 °C (dec.) | NCC1(C(=O)O)CC12CCCC2 (stereo not shown)
254 to 256 °C | CC1(C)CC1(CN)C(=O)O (stereo not shown)
> 250 °C (dec.) | Cl.NCC1(C(=O)O)CC12CCCCC2 (stereo not shown) [Example 1, 1-AMINOMETHYL-SPIRO[2.5]OCTANE-1-CARBOXYLIC ACID HYDROCHLORIDE]
240 to 242 °C | Cl.NCC1(C(=O)O)CC12CCCCC2 (stereo not shown) [Example 14]

Further lines, the molecule ahead of its results:

SMILES | melting point
NCC1(C(=O)O)CC1C1CCCCC1 (stereo not shown) | 270 °C (dec.)
CC(C)CC1CC1(CN)C(=O)O.Cl (stereo not shown) [Example 6, 1-AMINOMETHYL-2-ISOBUTYL-CYCLOPROPANECARBOXYLIC ACID HYDROCHLORIDE] | > 220 °C (dec.)
CC(C)CC1CC1(CN)C(=O)O.Cl (stereo not shown) [Example 15] | 254 to 255 °C
CCC(CC)C1CC1(CN)C(=O)O (stereo not shown) | 255 to 257 °C
CCCC1(CCC)CC1(CN)C(=O)O (stereo not shown) | 255 to 257 °C
CC(C)C1CC1(CN)C(=O)O.Cl (stereo not shown) | 245 to 246 °C
